Results taken from patent publication US9771370B2, “Compounds for the inhibition of indoleamine-2,3-dioxygenase” (Merck Patent GmbH, priority 2014, dated 2017).

Molecular target: Recombinant human IDO (Homo sapiens, UniProt P14902)
Assay: Bridge-IT tryptophan fluorescence assay of human IDO-1 inhibition
Assay type: biochemical
Details: recombinant human IDO 7.5 nM, L-tryptophan
Method in brief: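 Two protocol variants: 100 μM L-Trp for 90 min at 37 °C, or 30 min enzyme–compound pre-incubation at 25 °C, then 50 μM L-Trp for 60 min at 25 °C. Reaction stopped in Bridge-IT solution A for 30 min at 30 °C.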

Recombinant human IDO, sequence (P14902 whole entry): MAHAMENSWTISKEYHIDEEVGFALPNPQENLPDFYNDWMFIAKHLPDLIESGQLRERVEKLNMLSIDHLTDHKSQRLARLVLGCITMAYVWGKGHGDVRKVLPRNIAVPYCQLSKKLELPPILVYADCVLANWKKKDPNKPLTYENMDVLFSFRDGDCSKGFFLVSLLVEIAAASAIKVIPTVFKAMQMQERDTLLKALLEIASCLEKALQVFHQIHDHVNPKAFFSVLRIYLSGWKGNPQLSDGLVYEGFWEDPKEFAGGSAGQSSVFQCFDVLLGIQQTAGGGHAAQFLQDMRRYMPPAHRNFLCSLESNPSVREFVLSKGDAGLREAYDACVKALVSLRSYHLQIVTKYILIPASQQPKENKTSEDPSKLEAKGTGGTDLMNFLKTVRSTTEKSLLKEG

Row | SMILES | IC50
1 | CC(C)(C)C(=O)N1CCC(C(O)CC2c3ncccc3-c3cncn32)CC1 (single isomer, unassigned) [Compound 88c, 1-[4-[1-hydroxy-2-[4,6,9-triazatricyclo[6.4.0.0^[2,6]]dodeca-1(8),2,4,9,11-pentaen-7-yl]ethyl]piperidin-1-yl]-2,2-dimethylpropan-1-one] | > 1 µM
2 | CC1(C)CCC(F)(CCC2c3ncncc3-c3cncn32)CC1 (single isomer, unassigned) [Compound 66b, 7-[2-(1-fluoro-4,4-dimethylcyclohexyl)ethyl]-4,6,9,11-tetraazatricyclo[6.4.0.0^[2,6]]dodeca-1(8),2,4,9,11-pentaene] | > 1 µM
3 | O=C(C1CCC(F)(CCC2c3ncccc3-c3cncn32)CC1)N1CCCCC1 (mixture of isomers) [Compound 100a, 7-[2-[1-Fluoro-4-[(piperidin-1-yl)carbonyl]cyclohexyl]ethyl]-4,6,9-triazatricyclo[6.4.0.0^[2,6]]dodeca-1(8),2,4,9,11-pentaene] | 0.1 to 1 µM
4 | FC(CC1c2ncccc2-c2cncn21)C1CCCCC1 (single isomer, unassigned) [Compound 97a, 7-[2-cyclohexyl-2-fluoroethyl]-4,6,9-triazatricyclo[6.4.0.0^[2,6]]dodeca-1(8),2,4,9,11-pentaene] | > 1 µM
5 | OC(CC1c2nc(C3CC3)ccc2-c2cncn21)C1CCCCC1 (single isomer, unassigned) [Compound 56c, 1-cyclohexyl-2-[10-cyclopropyl-4,6,9-triazatricyclo[6.4.0.0^[2,6]]dodeca-1(8),2,4,9,11-pentaen-7-yl]ethan-1-ol] | > 1 µM
6 | O=C(C1CCC(F)(CCC2c3c(F)cccc3-c3cncn32)CC1)N1CCCCC1 (mixture of isomers) [Compound 110b] | 0.1 to 1 µM
7 | Fc1cccc2c1C(CCC1(F)CCOCC1)n1cncc1-2 (single isomer, unassigned) [Compound 95a, 6-fluoro-5-[2-(4-fluorooxan-4-yl)ethyl]-5H-imidazo[4,3-a]isoindole] | > 1 µM
8 | FC1(CCC2c3c(Cl)cccc3-c3cncn32)CCCCC1 (single isomer, unassigned) [Compound 70b, 6-chloro-5-[2-(1-fluorocyclohexyl)ethyl]-5H-imidazo[4,3-a]isoindole] | 0.1 to 1 µM
9 | CC(C)(O)C1CCC(F)(CCC2c3c(Cl)cccc3-c3cncn32)CC1 (mixture of isomers) [Compound 107a, 2-[4-(2-[6-chloro-5H-imidazo[4,3-a]isoindol-5-yl]ethyl)-4-fluorocyclohexyl]propan-2-ol] | > 1 µM
10 | OC1(C2CCC(F)(CCC3c4c(Cl)cccc4-c4cncn43)CC2)CC1 (mixture of isomers) [Compound 106a, 1-[4-(2-[6-chloro-5H-imidazo[4,3-a]isoindol-5-yl]ethyl)-4-fluorocyclohexyl]cyclopropan-1-ol] | < 0.1 µM
11 | OC(CC1c2nc(F)ccc2-c2cncn21)C1CCCCC1 (stereo not shown) [Compound 31a, 1-cyclohexyl-2-[10-fluoro-4,6,9-triazatricyclo[6.4.0.0^[2,6]]dodeca-1(8),2,4,9,11-pentaen-7-yl]ethan-1-ol] | 0.1 to 1 µM
12 | NC(=O)CC1CCC(F)(CCC2c3ccccc3-c3cncn32)CC1 (single isomer, unassigned) [Compound 112b, 2-[4-fluoro-4-[2-[5H-imidazo[4,3-a]isoindol-5-yl]ethyl]cyclohexyl]acetamide] | < 0.1 µM
13 | CC1(C)CCC(CCC2c3ncccc3-c3cncn32)CC1 (stereo not shown) [Compound 51, 7-[2-(4,4-dimethylcyclohexyl)ethyl]-4,6,9-triazatricyclo[6.4.0.0^[2,6]]dodeca-1(8),2,4,9,11-pentaene] | > 1 µM
14 | OC(CC1c2ncccc2-c2cncn21)C1CCC2(CC1)CC2 (single isomer, unassigned) [Compound 29a, 1-[spiro[2.5]octan-6-yl]-2-[4,6,9-triazatricyclo[6.4.0.0^[2,6]]dodeca-1(8),2,4,9,11-pentaen-7-yl]ethan-1-ol] | 0.1 to 1 µM
15 | CN(C)C(=O)C1CCC(F)(CCC2c3c(Cl)cccc3-c3cncn32)CC1 (single isomer, unassigned) [Compound 114a, 4-[2-[6-chloro-5H-imidazo[4,3-a]isoindol-5-yl]ethyl]-4-fluoro-N,N-dimethylcyclohexane-1-carboxamide] | < 0.1 µM
16 | NC(CC1c2ncccc2-c2cncn21)C1CCCCC1 (stereo not shown) [Compound 21a, 1-cyclohexyl-2-[4,6,9-triazatricyclo[6.4.0.0^[2,6]]dodeca-1(8),2,4,9,11-pentaen-7-yl]ethan-1-amine] | > 1 µM
17 | OCC1CCC(F)(CCC2c3c(F)cccc3-c3cncn32)CC1 (single isomer, unassigned) [Compound 84c, [4-fluoro-4-[2-[6-fluoro-5H-imidazo[4,3-a]isoindol-5-yl]ethyl]cyclohexyl]methanol] | < 0.1 µM

Row | SMILES | IC50
18 | OC1CCC(F)(CCC2c3nccc(F)c3-c3cncn32)CC1 (mixture of isomers) [Compound 103a, 4-fluoro-4-(2-[12-fluoro-4,6,9-triazatricyclo[6.4.0.0^[2,6]]dodeca-1(8),2,4,9,11-pentaen-7-yl]ethyl)cyclohexan-1-ol] | > 1 µM
19 | OC(CC1c2ncccc2-c2cncn21)C1CCCCC1 (single isomer, unassigned) [Compound 5a, 1-cyclohexyl-2-[4,6,9-triazatricyclo[6.4.0.0^[2,6]]dodeca-1(8),2,4,9,11-pentaen-7-yl]ethan-1-ol] | 0.1 to 1 µM
20 | OC(CC1c2nc(OC3CC3)ccc2-c2cncn21)C1CCCCC1 (single isomer, unassigned) [Compound 68c, 1-cyclohexyl-2-[10-cyclopropoxy-4,6,9-triazatricyclo[6.4.0.0^[2,6]]dodeca-1(8),2,4,9,11-pentaen-7-yl]ethan-1-ol] | > 1 µM
21 | O=C(C1CCC(F)(CCC2c3c(Cl)cccc3-c3cncn32)CC1)N1CCCCC1 (single isomer, unassigned) [Compound 115d] | > 1 µM
22 | OC(CC1c2nc(C3CC3)ccc2-c2cncn21)C1CCC(F)(F)CC1 (single isomer, unassigned) [Compound 57c, 2-[10-cyclopropyl-4,6,9-triazatricyclo[6.4.0.0^[2,6]]dodeca-1(8),2,4,9,11-pentaen-7-yl]-1-(4,4-difluorocyclohexyl)ethan-1-ol] | 0.1 to 1 µM
23 | COc1ccc2c(n1)C(CC(N)C1CCCCC1)n1cncc1-2 (single isomer, unassigned) [Compound 118b, 1-cyclohexyl-2-[10-methoxy-4,6,9-triazatricyclo[6.4.0.0^[2,6]]dodeca-1(8),2,4,9,11-pentaen-7-yl]ethan-1-amine] | 0.1 to 1 µM
24 | NC(=O)CC1CCC(F)(CCC2c3c(F)cccc3-c3cncn32)CC1 (single isomer, unassigned) [Compound 116a, 2-[4-Fluoro-4-[2-[6-fluoro-5H-imidazo[4,3-a]isoindol-5-yl]ethyl]cyclohexyl]acetamide] | > 1 µM
25 | OC1(C2CCC(F)(CCC3c4ccccc4-c4cncn43)CC2)CC1 (single isomer, unassigned) [Compound 60a, 1-[4-fluoro-4-[2-[5H-imidazo[4,3-a]isoindol-5-yl]ethyl]cyclohexyl]cyclopropan-1-ol] | < 0.1 µM
26 | OC(CC1c2ncccc2-c2cncn21)C1CCC2(CC1)CC2 (single isomer, unassigned) [Compound 29b, 1-[spiro[2.5]octan-6-yl]-2-[4,6,9-triazatricyclo[6.4.0.0^[2,6]]dodeca-1(8),2,4,9,11-pentaen-7-yl]ethan-1-ol] | > 1 µM
27 | OC(CC1c2ncccc2-c2cncn21)C1CCOCC1 (single isomer, unassigned) [Compound 92c, 1-(oxan-4-yl)-2-[4,6,9-triazatricyclo[6.4.0.0^[2,6]]dodeca-1(8),2,4,9,11-pentaen-7-yl]ethan-1-ol] | > 1 µM
28 | COc1ccc2c(n1)C(CC(N)C1CCC(F)(F)CC1)n1cncc1-2 (single isomer, unassigned) [Compound 120b, 1-(4,4-difluorocyclohexyl)-2-[10-methoxy-4,6,9-triazatricyclo[6.4.0.0^[2,6]]dodeca-1(8),2,4,9,11-pentaen-7-yl]ethan-1-amine] | > 1 µM
29 | FC1(CCC2c3nc(C(F)(F)F)ccc3-c3cncn32)CCCCC1 (single isomer, unassigned) [Compound 76b, 7-[2-(1-fluorocyclohexyl)ethyl]-10-(trifluoromethyl)-4,6,9-triazatricyclo[6.4.0.0^[2,6]]dodeca-1(8),2,4,9,11-pentaene] | > 1 µM
30 | CC(C)(C)C(=O)N1CCC(C(O)CC2c3ncccc3-c3cncn32)CC1 (single isomer, unassigned) [Compound 88b, 1-[4-[1-hydroxy-2-[4,6,9-triazatricyclo[6.4.0.0^[2,6]]dodeca-1(8),2,4,9,11-pentaen-7-yl]ethyl]piperidin-1-yl]-2,2-dimethylpropan-1-one] | > 1 µM
31 | COc1ccc2c(n1)C(CC(N)C1CCCCC1)n1cncc1-2 (single isomer, unassigned) [Compound 118c, 1-cyclohexyl-2-[10-methoxy-4,6,9-triazatricyclo[6.4.0.0^[2,6]]dodeca-1(8),2,4,9,11-pentaen-7-yl]ethan-1-amine] | > 1 µM
32 | OC(CC1c2nccc(F)c2-c2cncn21)C1CCCCC1 (single isomer, unassigned) [Compound 101d, 1-cyclohexyl-2-[12-fluoro-4,6,9-triazatricyclo[6.4.0.0^[2,6]]dodeca-1(8),2,4,9,11-pentaen-7-yl]ethan-1-ol] | > 1 µM
33 | FC(CC1c2ccccc2-c2cncn21)C1CCCCC1 (mixture of isomers) [Compound 108a, 5-[2-cyclohexyl-2-fluoroethyl]-5H-imidazo[4,3-a]isoindole] | 0.1 to 1 µM
34 | NS(=O)(=O)C1CCC(F)(CCC2c3ccccc3-c3cncn32)CC1 (single isomer, unassigned) [Compound 121c, 4-fluoro-4-[2-[5H-imidazo[4,3-a]isoindol-5-yl]ethyl]cyclohexane-1-sulfonamide] | > 1 µM
